Reference: US20030021796A1, “Method of enhancing T cell immunity by selection of antigen specific T cells” (priority 2001, published 2003)
“Also recorded” adds a separate entry of the source.

Experiments:
[1] = tested on: transgenic CD4^+ thymocytes; assay: Positive selection of CD4^+ thymocytes after peptide injection into TCR^TgTCRα^−H2-M^−Ii^− mice (flow cytometry of thymus); format: in vivo, mouse
From the text: Mice. The TCR genes were cloned from T cell hybridoma specific for analogs of the PCC(43-58) peptide and expressed in VA-hCD2 cassette (Ignatowicz et al., 1997; Kraj et al., 2001; Zhumabekov et al., 1995). All TCR transgenic mice were made by co-microinjection of the respective […] and TCRβ constructs into fertilized eggs of F1 (C57BL/6×CBA/Ca) mice. TCR Tg mice were crossed to C57B16/TCRα^− (Jackson Laboratory, ME) mice and to mice deficient in H2-M (kindly provided by E. Bikoff and R. Germain) and Ii (kindly provided by L. van Kaer) to obtain TCR^TgTCRα^− H2-M^−Ii^−.
Flow cytometry analysis. Monoclonal antibodies specific for CD4(RM4-5), CD8(53-6.7), VβB8(F23.1), CD69(H1.2F3), CD44(IM7) and CD62L(MEL-14) were purchased from PharMingen (San Diego, Calif.) and used according to manufacturer's recommendations. Cells were analyzed using a FACSCalibur instrument (Becton Dickinson, San Jose, Calif.) and CellQuest software. For intracellular stain cells were first stained for CD4 and CD8, fixed in 2% paraformaldehyde, permeabilized in 0.1% Tween-20 and stained with anti-bcl-2 antibody (Pharmingen) according to manufacturer instruction.
Peptide injections and surgical procedures. TCR^TgTCRα^− and TCR^TgTCRαH2-M^−Ii^− were injected i.p. with agonist and control peptides dissolved in PBS. After indicated time mice were sacrificed, thymus and lymph nodes were collected and single cell suspensions were prepared. Pups were injected with 2 μg of peptide subcutaneously 12-24 hours after birth and thymi were transplanted into recipient mice 24 hours after injection. 5-8 week old TCR^TgTCRα^− H2-M^−Ii^− mice were used for thymectomy or as thymic transplant recipients. Surgical procedures were performed as described (Coligan et al., 1997). Mice were handled according with the institutional guidance.

[2] = tested on: transgenic CD4^+ T cells; assay: Neonatal thymus transplant under the kidney capsule of TCRα^−H2-M^−Ii^− recipients with selecting peptide; format: in vivo, mouse
From the text: Since the selecting peptide is an agonist, in a specific embodiment of the present invention the observed phenomenon results from the expansion of a small number of peripheral transgenic CD4^+ T cells rather than from induced positive selection. To test this possibility, two types of experiments have been performed. In the first experiment, the PCC TgTCRα^−H-2M^−Ii^− mice were thymectomized and then injected with the PCC50V54A peptide. Two weeks after injection, these mice were sacrificed and the number of peripheral CD4^+ T cells was counted. […] In the second experiment, the neonatal thymi from TgTCRα^−H-2M^−Ii^− mice were transplanted under the kidney capsule of H-2M^−Ii^− TCRα^− mice, which are devoid of T cells. Two days after surgery, half of the recipient mice were injected with the selecting peptide. After 10 days, recipient mice were sacrificed and the presence of transgenic CD4^+ T cells in the transplanted thymus and lymph nodes was determined by FACS analysis. […] Apparently, CD4^+ T cells appear in the peripheral lymph nodes of PCC TgTCRα^−H-2M^−Ii^− injected with the PCC50V54A peptide as a result of positive selection by this peptide.
Peptide injections and surgical procedures. TCR^TgTCRα^− and TCR^TgTCRαH2-M^−Ii^− were injected i.p. with agonist and control peptides dissolved in PBS. After indicated time mice were sacrificed, thymus and lymph nodes were collected and single cell suspensions were prepared. Pups were injected with 2 μg of peptide subcutaneously 12-24 hours after birth and thymi were transplanted into recipient mice 24 hours after injection. […]
(§1) Since the selecting peptide is an agonist, one could argue that the observed phenomenon results from the expansion of a small number of peripheral transgenic CD4^+ T cells rather than from induced positive selection (Martin & Bevan, 1997). […] Two weeks after injection, the mice were sacrificed and the number of peripheral CD4^+ T cells was counted. […] After 10 days, recipient mice were sacrificed and the presence of transgenic CD4^+ T cells in the transplanted thymus and host lymph nodes was determined by FACS analysis. […]

[3] = tested on: transgenic thymocytes; assay: Fetal thymic organ cultures (FTOC) from TgTCRα^−H-2M^−Ii^− mice with peptide; format: cell-based, mouse; conditions: continuous delivery of peptide at low concentration
From the text: The TgTCRα^−H-2M^−Ii^− system enables the visualization of thymocyte positive selection in real time and in the native intrathymic environment. An in vitro system was setup where the transgenic thymocytes undergo efficient positive selection and commit to the CD4^+ lineage. […] These observations agreed with the previous reports in which CD8^+, but not CD4+, T cells could be positively selected by the specific peptide in FTOCs (Kenty et al., 1998; Liblau et al, 1996). Therefore, neonatal thymic organ cultures (NTOC) were established from TgTCRα^−-H-2M^−Ii^− neonates. The neonates received a single i.p. injection of the PCC50V54A peptide just after birth and were sacrificed 24 hours later when their thymuses were harvested.

[4] = tested on: peripheral CD4^+ T cells; assay: Peptide injection into thymectomized TCR^TgTCRα^−H2-M^−Ii^− mice; format: in vivo, mouse; conditions: two weeks after injection
From the text: Since the selecting peptide is an agonist, in a specific embodiment of the present invention the observed phenomenon results from the expansion of a small number of peripheral transgenic CD4^+ T cells rather than from induced positive selection. To test this possibility, two types of experiments have been performed. In the first experiment, the PCC TgTCRα^−H-2M^−Ii^− mice were thymectomized and then injected with the PCC50V54A peptide. Two weeks after injection, these mice were sacrificed and the number of peripheral CD4^+ T cells was counted. […] After 10 days, recipient mice were sacrificed and the presence of transgenic CD4^+ T cells in the transplanted thymus and lymph nodes was determined by FACS analysis. […]
as §1

[5] = one i.p. injection of 50 μg, 24 hours

In the case of “AEGFSYTVANKAKGIT [PCC50V54A, analog of pigeon cytochrome C peptide PCC(43-58)]”, the “cellularity of the thymus and number of apoptotic cells (TUNNEL assay and annexin V staining)” value ([1]; 20 μg, compared with controls) is reported as “the same”, the “expression of TCR, CD69, bcl-2 on thymocytes” value ([1]; after injection of selecting peptide (20 μg, 48 hours)) is reported as “became bcl-2+; also recorded: upregulated CD69 and bcl-2 expression; also recorded: upregulated TCR and CD69 expression; also recorded: Bcl-2 was upregulated” and the “positive selection of transgenic thymocytes” value ([1]; i.p., non-deleting dose (20 μg)) is reported as “restored selection of CD4^+ single positive thymocytes”. For the same sequence, the “CD25 phenotype of newly selected CD4^+ thymocytes” value ([1]; mouse, in vivo) was “CD25^−”, the “differentiation of thymocytes into single positive CD4^+ cells” value [1, 5] was “differentiate into single positive CD4^+ cells” and the “total number of thymocytes” value [1, 5] was 161.5×10^6±54.4. The “total number of thymocytes” value ([1]; one i.p. injection of 50 μg, 48 hours) was 142.5×10^6±44.9, the “duration of positive selection of CD4^+ thymocytes after a single injection” value ([1]; single injection) was 14 days and the “presence of transgenic CD4^+ T cells in transplanted thymus and host lymph nodes” value ([2]; donor neonates injected (2 μg) 24 hours before transplantation) was “found only in mice grafted with thymi from neonates injected with the selecting peptide; also recorded: repopulate peripheral lymph nodes”. For the same sequence, the “presence of transgenic CD4^+ T cells in transplanted thymus and lymph nodes” value ([2]; recipients injected two days after surgery, analysed after 10 days) was “found only in thymus-grafted mice, injected with the selecting peptide”, the “total number of lymph node cells” value ([2]; recipients of neonatal thymi injected with the selecting peptide, two weeks after transplantation) was 25.5×10^6±4.2 and the “lineage commitment of thymocytes in FTOC” value [3] was “the majority of thymocytes committed to the CD8 lineage”. The “total number of lymph node cells” value ([4]; 50 μg) was 11.5×10^6±1.6 and the “number of peripheral CD4 transgenic T cells” value ([4]; versus non-injected thymectomized controls) was “very low and did not increase; also recorded: very few CD4^+ peripheral T cells”.
